Results published in US20080249023A1 (priority 2004, published 2008).
Ends that are not written are not given here.

Key:
Bacillus subtilis = format: cell-based

Row | Sequence | effect on Bacillus subtilis in time kill assay (Bacillus subtilis) | detergent-like (lytic) activity (sheep red blood cells)
1 | RFARKGALRQKNV [Protein kinase C] | no effect | 
2 | TRKKLFHIFHATIRSR [PAD-1.17, TRKKLFHIFHATIRSR] |  | did not appear to act as a detergent
